The IC50 is the point on the concentration scale where inhibition reaches its midpoint.

The results in this text go back to patent publication US11986471B2, “Compounds and methods of use” (Tango Therapeutics, Inc., priority 2018, dated 2024).

In assay [1] the target is T1, PRMT5 (Homo sapiens, UniProt O14744).
T1 construct: purchased Viva (custom protein)
Nature of the assay: PRMT5 IC50 assay with no cofactor. It is filed as biochemical. The essentials: (§1)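 IC50 values were measured against human PRMT5 with SAM, with MTA, or with no cofactor. Ki was derived from IC50 as Ki=IC50/1.5 with SAM and Ki=IC50/13.5 with MTA, and the Ki(SAM)/Ki(MTA) ratio was then taken.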

The target in assay [2] is T1, PRMT5. The assay is described as follows: PRMT5 IC50 assay in the presence of MTA as cofactor. It is filed as biochemical. The note with it: for IC50: PRMT5, MTA as cofactor. An outline of the steps:
as §1

Assay [3] addresses T1, PRMT5. Nature of the assay: PRMT5 IC50 assay in the presence of SAM as cofactor. It is filed as biochemical. An outline of the steps: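 Values reflect IC50 (μM) on human PRMT5 under three cofactor states. Selectivity is derived as the quotient of SAM-state Ki over MTA-state Ki, with each Ki obtained from its IC50.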
Assay [4] has as its system HAP1 MTAP-intact. The assay is described as follows: SDMA in-cell western assay, HAP1 MTAP-intact cell line. It is filed as cell-based. The note with it: Homo sapiens. An outline of the steps:
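Potency reflects cellular SDMA reduction, detected by in-cell western, in HAP1 cells with or without MTAP (endogenous expression versus null).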

Assay [5] has as its system HAP1 MTAP-deleted. Nature of the assay: SDMA in-cell western assay, HAP1 MTAP-deleted cell line. It is filed as cell-based. The note with it: for IC50: Homo sapiens, HAP1 MTAP-deleted cell line; for MTAP Intact/Deleted Ratio: IC50 ratio HAP1 MTAP-intact / HAP1 MTAP-deleted. An outline of the steps:
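These are IC50 values from an in-cell western measuring SDMA. The HAP1 cells used carry no MTAP, in contrast to the isogenic partner line with endogenous MTAP expression.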

[6] abbreviates: ratio between Ki in the presence of SAM and Ki in the presence of MTA.
The mark [7] stands for this setting: ratio between the Ki in the presence of SAM and the Ki in the presence of MTA.

T1 sequence (O14744 whole entry): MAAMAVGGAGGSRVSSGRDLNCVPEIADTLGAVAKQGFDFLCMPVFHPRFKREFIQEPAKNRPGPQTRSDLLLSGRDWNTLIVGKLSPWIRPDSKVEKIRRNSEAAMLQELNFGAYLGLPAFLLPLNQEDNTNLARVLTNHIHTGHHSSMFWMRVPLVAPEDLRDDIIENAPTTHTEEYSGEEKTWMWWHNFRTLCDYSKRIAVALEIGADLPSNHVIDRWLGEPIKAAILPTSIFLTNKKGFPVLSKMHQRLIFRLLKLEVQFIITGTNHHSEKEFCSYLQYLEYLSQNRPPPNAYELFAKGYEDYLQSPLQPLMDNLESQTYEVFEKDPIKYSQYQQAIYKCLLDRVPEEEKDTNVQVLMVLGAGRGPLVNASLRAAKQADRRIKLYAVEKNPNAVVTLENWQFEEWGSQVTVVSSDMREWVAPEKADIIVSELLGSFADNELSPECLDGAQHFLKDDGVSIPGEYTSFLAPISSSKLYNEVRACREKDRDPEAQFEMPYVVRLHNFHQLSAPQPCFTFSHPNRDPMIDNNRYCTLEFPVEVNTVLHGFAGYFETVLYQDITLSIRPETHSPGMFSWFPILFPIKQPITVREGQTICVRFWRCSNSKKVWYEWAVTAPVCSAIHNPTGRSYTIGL
T1 sequence (Q9BQA1 whole entry partner): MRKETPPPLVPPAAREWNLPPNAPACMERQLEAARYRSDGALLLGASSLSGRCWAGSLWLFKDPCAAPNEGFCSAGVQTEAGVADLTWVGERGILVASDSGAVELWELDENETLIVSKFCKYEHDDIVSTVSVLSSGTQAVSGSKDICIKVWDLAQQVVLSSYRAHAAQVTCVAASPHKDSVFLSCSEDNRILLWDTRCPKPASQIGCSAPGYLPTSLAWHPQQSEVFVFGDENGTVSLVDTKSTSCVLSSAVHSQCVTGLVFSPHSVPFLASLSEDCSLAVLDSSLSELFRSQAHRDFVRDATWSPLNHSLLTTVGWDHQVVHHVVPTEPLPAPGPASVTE

With `Cc1ncoc1COc1ccc2c(c1C)CCN(C[C@@H](O)CNC(=O)c1cc(NC3CCC3)nc(N3CCN(C(=O)C4CC4)CC3)c1)C2` [Compound 411, 2-(cyclobutylamino)-6-(4-cvclopropanecarbonylpiperazin-1-yl)-N-[(2S)-2-hydroxy-3-{5-methyl-6-[(4-methyl-1,3-oxazol-5-yl)methoxy]1,2,3,4-tetrahydroisoquinolin-2-yl}propyl]pyridine-4-carboxamide], the IC50 was 500 to 5000 nM in assay [1] (read-out: No Co-factor IC50); 50 to 500 nM in assay [2]; 50 to 500 nM in assay [3]; at least 10000 nM in assay [4]; under 1000 nM in assay [5]. Moreover, the “SAM/MTA Ratio” value in assay [2] (setting [6]) is “A (a Ki ratio greater than or equal to 10 fold between the Ki in the presence of SAM and the Ki in the presence of MTA)”. Also, in assay [5], the “MTAP Intact/Deleted Ratio” value was “A* (an IC50 ratio greater than or equal to 10 fold between the IC50 in the HAP1 MTAP-intact cell line and the HAP1 MTAP-deleted cell line)”.
Regarding `O=C(NC[C@H](O)CN1CCc2c(ccc(OCc3cnco3)c2Cl)C1)c1ccnc(NC2CCC2)c1` [Compound 194, N-[(2S)-3-[5-chloro-6-(oxazol-5-ylmethoxy)-3,4-dihydro-1H-isoquinolin-2-yl]-2-hydroxy-propyl]-2-(cyclobutylamino)pyridine-4-carboxamide], the IC50 in assay [1] (read-out: No Co-factor IC50) is at least 5000 nM; in assay [2] it was 50 to 500 nM; in assay [3], 500 to 5000 nM; in assay [4] it was at least 10000 nM; in assay [5] it was at least 10000 nM. The “MTAP Intact/Deleted Ratio” value in assay [5] was “C* (an IC50 ratio of less than 3 fold between the IC50 in the HAP1 MTAP-intact cell line and the HAP1 MTAP-deleted cell line)”.
Turning to `CC(=O)N1CCN(c2nc(NC3COC3)cc(C(=O)NC[C@H](O)CN3CCc4c(ccc(OCc5ocnc5C)c4C)C3)n2)CC1` [Compound 499, 2-(4-acetylpiperazin-1-yl)-N-[(2S)-2-hydroxy-3-{5-methyl-6-[(4-methyl-1,3-oxazol-5-yl)methoxy]-1,2,3,4-tetrahydroisoquinolin-2-yl}propyl]-6-[(oxetan-3-yl)amino]pyrimidine-4-carboxamide], the IC50 in assay [1] is at least 5000 nM; in assay [2] it was 50 to 500 nM; in assay [3] it was 500 to 5000 nM; in assay [4], at least 10000 nM; in assay [5] it was at least 10000 nM. Further, the “SAM/MTA Ratio” value in assay [2] (setting [7]) was “A (a Ki ratio greater than or equal to 10 fold between the Ki in the presence of SAM and the Ki in the presence of MTA)”. Besides, the “MTAP Intact/Deleted Ratio” value in assay [5] was “C* (an IC50 ratio of less than 3 fold between the IC50 in the HAP1 MTAP-intact cell line and the HAP1 MTAP-deleted cell line)”.
In the case of `Cc1ncoc1COc1ccc2c(c1)CCN(C[C@@H](O)CNC(=O)c1cc(NC3CCC3)nc(N3CCN(C(C)C)CC3)c1)C2` [Compound 428, 2-(cyclobutylamino)-N-[(2S)-2-hydroxy-3-{6-[(4-methyl-1,3-oxazol-5-yl)methoxy]-1,2,3,4-tetrahydroisoquinolin-2-yl}propyl]-6-[4-(propan-2-yl)piperazin-1-yl]pyridine-4-carboxamide], the IC50 is 500 to 5000 nM in assay [1]; under 50 nM in assay [2]; 50 to 500 nM in assay [3]; at least 10000 nM in assay [4]; at least 10000 nM in assay [5]. Besides, in assay [2] (setting [7]), the “SAM/MTA Ratio” value was “A (a Ki ratio greater than or equal to 10 fold between the Ki in the presence of SAM and the Ki in the presence of MTA)”. For the same molecule, the “MTAP Intact/Deleted Ratio” value in assay [5] is “C* (an IC50 ratio of less than 3 fold between the IC50 in the HAP1 MTAP-intact cell line and the HAP1 MTAP-deleted cell line)”.
With `COCCN(C)c1cc(C(=O)NC[C@H](O)CN2CCc3cc(OCc4ocnc4C)c(F)cc3C2)cc(NC2CCN(C(C)=O)CC2)n1` [Compound 612, 2-[(1-acetyl-4-piperidyl)amino]-N-[(2S)-3-[7-fluoro-6-[(4-methyloxazol-5-yl)methoxy]-3N-dihydro-1H-isoquinolin-2-yl]-2-hydroxy-propyl]-6-[2-methoxyethyl(methyl)amino]pyridine-4-carboxamide], the IC50 in assay [1] is 50 to 500 nM; in assay [2] it was 50 to 500 nM; in assay [3] it was 50 to 500 nM; in assay [4], at least 10000 nM; in assay [5] it was under 1000 nM. In addition, the “SAM/MTA Ratio” value in assay [2] (setting [7]) was “A (a Ki ratio greater than or equal to 10 fold between the Ki in the presence of SAM and the Ki in the presence of MTA)”. For the same molecule, in assay [5], the “MTAP Intact/Deleted Ratio” value was “A* (an IC50 ratio greater than or equal to 10 fold between the IC50 in the HAP1 MTAP-intact cell line and the HAP1 MTAP-deleted cell line)”.
In the case of `Cc1c(OCc2cnco2)ccc2c1CCN(C[C@@H](O)CNC(=O)c1ccnc(NC3CCN(C(=O)C4CC4)CC3)c1)C2` [Compound 484, (S)-2-((1-(cyclopropanecarbonyl)piperidin-4-yl)amino)-N-(2-hydroxy-3-(5-methyl-6-(oxazol-5-ylmethoxy)-3N-dihydroisoquinolin-2(1H)-yl)propyl)isonicotinamide], the IC50 in assay [1] is 500 to 5000 nM; in assay [2] it was 50 to 500 nM; in assay [3], 50 to 500 nM; in assay [4], at least 10000 nM; in assay [5] it was 1000 to 10000 nM. Also, the “SAM/MTA Ratio” value in assay [2] (setting [7]) is “A (a Ki ratio greater than or equal to 10 fold between the Ki in the presence of SAM and the Ki in the presence of MTA)”. Further, the “MTAP Intact/Deleted Ratio” value in assay [5] was “B* (an IC50 ratio greater than or equal to 3 fold but lower than 10 fold between the IC50 in the HAP1 MTAP-intact cell line and the HAP1 MTAP-deleted cell line)”.
As for `COc1cc(C(=O)NC[C@H](O)CN2CCc3cc(OCc4ocnc4C)ccc3C2)cc(NC2CCN(C(C)=O)CC2)n1` [Compound 599, (S)-2-((1-acetylpiperidin-4-yl)amino)-N-(2-hydroxy-3-(6-((4-methyloxazol-5-yl)methoxy)-3,4-dihydroisoquinolin-2(1H)-yl)propyl)-6-methoxyisonicotinamide], the 50% inhibitory concentration (IC50) is 500 to 5000 nM in assay [1]; 50 to 500 nM in assay [2]; 50 to 500 nM in assay [3]; 1000 to 10000 nM in assay [4]; under 1000 nM in assay [5]. For the same molecule, the “SAM/MTA Ratio” value in assay [2] (setting [7]) is “A (a Ki ratio greater than or equal to 10 fold between the Ki in the presence of SAM and the Ki in the presence of MTA)”. Further, the “MTAP Intact/Deleted Ratio” value in assay [5] was “A* (an IC50 ratio greater than or equal to 10 fold between the IC50 in the HAP1 MTAP-intact cell line and the HAP1 MTAP-deleted cell line)”.
Consider `O=C(NC[C@H](O)CN1CCc2c(ccc(OCc3cnco3)c2Cl)C1)c1ccnc(NC2CCCCC2)c1` [Compound 420, (S)—N-(3-(5-chloro-6-(oxazol-5-ylmethoxy)-3N-dihydroisoquinolin-2(1H)-yl)-2-hydroxypropyl)-2-(cyclohexylamino)isonicotinamide], for which the 50% inhibitory concentration (IC50) is 500 to 5000 nM in assay [1] (read-out: No Co-factor IC50); 50 to 500 nM in assay [2]; 50 to 500 nM in assay [3]; at least 10000 nM in assay [4]; at least 10000 nM in assay [5]. Besides, the “SAM/MTA Ratio” value in assay [2] (setting [6]) is “A (a Ki ratio greater than or equal to 10 fold between the Ki in the presence of SAM and the Ki in the presence of MTA)”. Moreover, the “MTAP Intact/Deleted Ratio” value in assay [5] is “C* (an IC50 ratio of less than 3 fold between the IC50 in the HAP1 MTAP-intact cell line and the HAP1 MTAP-deleted cell line)”.
As to `CCCC(=O)N1CCC(Nc2cc(C(=O)NC[C@H](O)CN3CCc4c(ccc(OCc5cnco5)c4Cl)C3)ccn2)CC1` [Compound 442, (S)-2-((1-butyrylpiperidin-4-yl)amino)-N-(3-(5-chloro-6-(oxazol-5-ylmethoxy)-3,4-dihydroisoquinolin-2(1H)-yl)-2-hydroxypropyl)isonicotinamide], the IC50 in assay [1] was 500 to 5000 nM; in assay [2], 50 to 500 nM; in assay [3], 50 to 500 nM; in assay [4] it was at least 10000 nM; in assay [5] it was under 1000 nM. The “SAM/MTA Ratio” value in assay [2] (setting [7]) was “A (a Ki ratio greater than or equal to 10 fold between the Ki in the presence of SAM and the Ki in the presence of MTA)”. For the same molecule, the “MTAP Intact/Deleted Ratio” value in assay [5] is “A* (an IC50 ratio greater than or equal to 10 fold between the IC50 in the HAP1 MTAP-intact cell line and the HAP1 MTAP-deleted cell line)”.
As for `COc1ccc(C(=O)N2CCc3cc(C(=O)NC[C@H](O)CN4CCc5c(ccc(OCc6ocnc6C)c5C)C4)ccc3C2)cc1` [Compound 533, N-[(2S)-2-hydroxy-3-{5-methyl-6-[(4-methyl-1,3-oxazol-5-yl)methoxy]-1,2,3,4-tetrahydroisoquinolin-2-yl}propyl]-2-(4-methoxybenzoyl)-1,2,3,4-tetrahydroisoquinoline-6-carboxamide], the IC50 was at least 5000 nM in assay [1]; 50 to 500 nM in assay [2]; 50 to 500 nM in assay [3]; at least 10000 nM in assay [4]; 1000 to 10000 nM in assay [5]. Further, the “SAM/MTA Ratio” value in assay [2] (setting [7]) is “A (a Ki ratio greater than or equal to 10 fold between the Ki in the presence of SAM and the Ki in the presence of MTA)”. In assay [5], the “MTAP Intact/Deleted Ratio” value is “C* (an IC50 ratio of less than 3 fold between the IC50 in the HAP1 MTAP-intact cell line and the HAP1 MTAP-deleted cell line)”.
